Where two headings read alike, the source gives them in different places.
How the values were obtained:
[1] = target: T1, human dopamine D3 receptor (Homo sapiens, UniProt P35462); experiment: Radioligand binding assay, human dopamine D3 receptors ([3H]Spiperone)
T1 construct: expressed in transfected cells; host or cells: CHO

[2] = target: T2, human serotonin 5-HT2A receptor (Homo sapiens, UniProt P28223); experiment: Radioligand binding assay, human 5-HT2A receptors ([3H]Ketanserin)
T2 construct: expressed in transfected cells; host or cells: CHO-K1
T2 sequence (P28223 whole entry): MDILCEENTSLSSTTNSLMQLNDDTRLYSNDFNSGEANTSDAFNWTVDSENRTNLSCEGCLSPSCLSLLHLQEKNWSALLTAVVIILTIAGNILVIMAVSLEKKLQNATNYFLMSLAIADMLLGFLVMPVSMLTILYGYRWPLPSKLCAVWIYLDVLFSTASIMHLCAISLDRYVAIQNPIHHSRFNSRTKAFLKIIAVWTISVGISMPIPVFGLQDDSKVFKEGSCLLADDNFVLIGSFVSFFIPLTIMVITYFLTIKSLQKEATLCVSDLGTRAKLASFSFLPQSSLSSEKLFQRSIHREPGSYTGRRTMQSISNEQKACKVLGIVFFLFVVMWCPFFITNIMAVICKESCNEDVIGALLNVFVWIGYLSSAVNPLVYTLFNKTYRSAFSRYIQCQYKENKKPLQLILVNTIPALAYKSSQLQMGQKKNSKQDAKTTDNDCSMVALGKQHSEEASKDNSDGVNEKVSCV

[3] = target: T3, human muscarinic M2 receptor (Homo sapiens, UniProt P08172); experiment: Binding to human muscarinic M2 receptors ([3H]N-methylscopolamine)
T3 construct: expressed in transfected cells; host or cells: BSR-M2H
T3 sequence (P08172 1-466): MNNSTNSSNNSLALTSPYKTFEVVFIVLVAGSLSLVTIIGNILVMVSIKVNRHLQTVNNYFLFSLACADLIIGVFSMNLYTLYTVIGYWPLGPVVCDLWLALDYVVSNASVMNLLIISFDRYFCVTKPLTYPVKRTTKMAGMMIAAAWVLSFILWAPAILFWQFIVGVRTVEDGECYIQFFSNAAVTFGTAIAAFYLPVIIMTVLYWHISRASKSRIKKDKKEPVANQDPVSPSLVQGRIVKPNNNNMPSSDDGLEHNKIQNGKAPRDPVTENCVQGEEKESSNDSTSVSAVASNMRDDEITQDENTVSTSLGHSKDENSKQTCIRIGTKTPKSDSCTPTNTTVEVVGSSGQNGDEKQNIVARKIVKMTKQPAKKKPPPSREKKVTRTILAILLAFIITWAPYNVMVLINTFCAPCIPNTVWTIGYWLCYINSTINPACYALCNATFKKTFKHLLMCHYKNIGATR
Method: This assay measures binding of [^3H]N-methylscopolamine to human muscarinic M2 receptors. BSR-M2H cells transfected with a plasmid encoding the human muscarinic M2 receptor were used to prepare membranes in modified Tris-HCl pH 7.4 buffer using standard techniques. A 5 μg aliquot of membrane was incubated with 0.29 nM [^3H]N-methylscopolamine for 60 minutes at 25° C. Non-specific binding was estimated in the presence of 1 μM atropine. Membranes were filtered and washed 3 times and the filters were counted to determine [^3H]N-methylscopolamine specifically bound. See Buckley, N. J., Bonner, T. I., Buckley, C. M. and Brann, M. R. Antagonist binding properties of five cloned muscarinic receptors expressed in CHO-K1 cells. Mol. Pharmacol. 35: 469–476, 1989; and Delmendo, R. E., Michel, A. D. and Whiting, R. L. Affinity of muscarinic receptor antagonists for the three putative muscarinic binding sites. Br. J. Pharmacol. 96: 457–464, 1989.
The human 5-HT2a and 5-HT2b screens were conducted according to Bonhaus, D. W. et al. Br. J. Pharmacol. 1995, 115, 622. The human […], W. A. et al. J. Neurochem. 1997, 69, 1449. The human 5-HT6 screen was conducted according to Monsama, F. J. et al. Mol. Pharmacol. 1993, 43, 320. The assay to human D3 receptors was conducted according to Sokoloff, P. et al. Nature 1990, 347;146. The human dopamine transporter assay was conducted according to Gu, H. et. al. J. Biol. Chem. 1994, 269 (10);7124; and Giros, B. et al. Trends. Pharmacol. Sci. 1993, 14: 43. The human muscarinic M1–M4 screens were conducted according to Buckley N. J. et al. Mol. Pharmacol. 1989, 35:469.
The human dopamine transporter assay was conducted according to Gu, H. et. al. J. Biol. Chem. 1994, 269 (10);7124 and Giros, B. et al. Trends. Pharmacol. Sci. 1993, 14: 43. The human muscarinic M1–M4 screens were conducted according to Buckley N. J. et al. Mol. Pharmacol. 199, 35:469

Wistar rats = experiment: Acute toxicity assessment (maximum tolerated dose) in Wistar rats, i.v.; format: in vivo; details: observed 72 hours
Method: An in vivo evaluation was carried out to determine the maximum tolerated dose of certain compounds in Wistar rats (male and female weighing ˜[…]). The compounds were administered i.v. and the animals were then observed for 72 hours. Compounds 37, 93, and 112 were solubilized in 5% dextrose (w/v)/polyethylene glycol 400 (4:1 v/v).

[4] = human, Example 100 table, read-out: IC50 (nM) D3
[5] = human, Example 100 table, read-out: IC50 (nM) 5-HT2A
[6] = human, Example 100 table, read-out: IC50 (nM) M2
[7] = Example 20 table, read-out: IC50 (nM) Against Human D3 Receptors
[8] = human 5-HT2a, Example 16 table, read-out: IC50 (nM) 5-HT2a
[9] = human, Example 101 table, read-out: IC50 (nM) M2

T1 sequence (P35462 whole entry): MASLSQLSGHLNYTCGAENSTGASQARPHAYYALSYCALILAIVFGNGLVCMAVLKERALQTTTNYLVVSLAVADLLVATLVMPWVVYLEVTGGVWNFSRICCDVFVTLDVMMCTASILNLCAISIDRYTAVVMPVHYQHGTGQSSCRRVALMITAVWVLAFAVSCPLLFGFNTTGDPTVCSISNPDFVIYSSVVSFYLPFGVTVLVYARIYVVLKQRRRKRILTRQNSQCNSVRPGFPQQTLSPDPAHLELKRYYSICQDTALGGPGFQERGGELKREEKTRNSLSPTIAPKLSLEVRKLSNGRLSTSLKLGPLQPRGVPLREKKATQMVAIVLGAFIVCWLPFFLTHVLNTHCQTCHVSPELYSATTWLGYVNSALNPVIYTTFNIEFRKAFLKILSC

| IC50 [1, 4] | IC50 [3, 6] | Structure (SMILES) | IC50 [1, 7] | IC50 [2, 8] | IC50 [3, 9] | also measured |
| --- | --- | --- | --- | --- | --- | --- |
| < 100 nM | > 1000 nM | CN1CCCC1CCNc1nc(C2(c3ccccc3F)CCCCC2)cs1 (racemic) [Compound 128, {4-[1-(2-fluorophenyl)-cyclohexyl]-thiazol-2-yl}-[2-(1-methyl-pyrrolidin-2-yl)-ethyl]-amine] |  |  |  | IC50 [2, 5]: < 100 nM |
| < 100 nM | > 1000 nM | CN1CCCC1CCNc1nc(C2(c3ccccc3F)CCCCC2)cs1 (single isomer, unassigned) [Compound 130, {4-[1-(2-fluorophenyl)-cyclohexyl]-thiazol-2-yl}-[2-(1-methyl-pyrrolidin-2-yl)-ethyl]-amine] |  |  |  | IC50 [2, 5]: < 100 nM |
|  |  | CN1CCN(c2nc(C3(c4csc5ccc(Cl)cc45)CCOCC3)cs2)CC1 [Compound 36] | < 1000 nM | > 1000 nM | > 1000 nM |  |
|  |  | Clc1ccc(C2(c3csc(N4CCNCC4)n3)CCOCC2)cc1 [Compound 37] | < 1000 nM | < 1000 nM | > 1000 nM | Tolerability and mortality after 72 h (Wistar rats; 60 mg/kg i.v.): well tolerated by the animals and did not cause any mortality |
|  |  | CN1CCN(c2nc(C3(c4ccccc4)CCOCC3)cs2)CC1 [Compound 59] |  |  |  | IC50 ([1]; IC50 (nM) Against Human D3 Receptors, Example 20 table): > 1000 nM; IC50 ([2]; IC50 (nM) 5-HT2a, human 5-HT2a, Example 16 table): > 1000 nM; IC50 [3]: > 1000 nM |
|  |  | CN1CCN(c2nc(C3(c4cccc(Cl)c4)CCOCC3)cs2)CC1 [Compound 63] | < 1000 nM | > 1000 nM | > 1000 nM |  |
|  |  | CN1CCN(c2nc(C3(c4ccccc4F)CCCCC3)cs2)CC1 [Compound 83] | < 100 nM | > 1000 nM | > 1000 nM |  |
|  |  | CN1CCN(c2nc(C3(c4ccccc4F)CCCC3)cs2)CC1 [Compound 93] | < 1000 nM | < 1000 nM | < 500 nM | Tolerability and mortality after 72 h (Wistar rats; 60 mg/kg i.v.): well tolerated by the animals and did not cause any mortality |

| Structure (SMILES) | IC50 [1, 4] | IC50 [3, 6] | IC50 [1, 7] | IC50 [2, 8] | IC50 [3, 9] | also measured |
| --- | --- | --- | --- | --- | --- | --- |
| CN1CCN(c2nc(C3(c4ccccc4F)CCOCC3)cs2)CC1 [Compound 112] | < 1000 nM | > 1000 nM |  |  |  | Tolerability and mortality after 72 h (Wistar rats; 30 mg/kg i.v.): well tolerated by the animals and did not cause any mortality |

Reference: US7087623B2, “Thiazole and other heterocyclic ligands for mammalian dopamine, muscarinic and serotonin receptors and transporters, and methods of use thereof” (Sepracor Inc., priority 2001, dated 2006)
